# Legend:
# [1] = tested on: split Fd fused to estrogen receptor
# [2] = tested on: lysates derived from E. coli EW11 expressing FNR and SIR; test: Sulfide production assay in cell lysates (sulfidefluor-7 fluorescence); type: biochemical, Escherichia coli
# Method: Cell lysates. Electrocompetent E. coli EW11 were transformed with the plasmid (pSAC01) that constitutively expresses Zea mays FNR and SIR. Cells were grown to stationary phase at 37° C. and 250 rpm in 2×YTPG medium (16 g/L tryptone, 10 g/L yeast extract, 5 g/L NaCl, 3 g/L KH2PO4, 7 g/L K2HPO4, and 18 g/L glucose) containing 100 μg/mL streptomycin. Cells from overnight cultures were diluted 1:100 in fresh 2×YTPG medium containing streptomycin, grown for 2 hours at 37° C. while shaking at 250 rpm until mid-log phase, and then shifted to 30° C. and grown for an additional 4 hours. […] Protein content in lysates was quantified using Bio-Rad Protein Assay Dye Reagent Concentrate (Bio-Rad), using bovine serum albumin (NEB) as a standard.
# Sulfide production assay. […] Following NADPH or protein addition, reactions were arrayed in a Corning 96 well plate at room temperature (Cost ar #3603), transferred to an Infinite m1000 Pro plate reader (Tecan), and heated to 37° C. and shaken at 250 rpm with fluorescence readings (λex=495 nm, λem=520 nm) every 15 seconds. […]
# SIR activity was monitored in desalted cell lysates using sulfidefluor-7 (Lin et al., 2013), a fluorescent probe for hydrogen sulfide. […]
# sFd-35-ER-RFP = details: 4-HT in ethanol compared to ethanol alone
# Sequence of sFd-35-ER-RFP (P03372 311-547 limits assumed): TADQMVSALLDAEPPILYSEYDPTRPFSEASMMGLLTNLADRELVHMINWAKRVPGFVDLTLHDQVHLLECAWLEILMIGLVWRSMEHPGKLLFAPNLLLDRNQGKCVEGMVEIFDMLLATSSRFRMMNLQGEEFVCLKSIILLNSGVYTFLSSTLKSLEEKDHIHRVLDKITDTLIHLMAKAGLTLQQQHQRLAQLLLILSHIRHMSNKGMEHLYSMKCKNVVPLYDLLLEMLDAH
# Method: Fluorescence spectroscopy.
# (§1) The activity of sFd-35-ER was evaluated by expressing this protein using an aTc-inducible promoter (FIG. 31B). […] This protein was also expressed as a fusion to RFP (sFd-35-ER-RFP) to evaluate how 4-HT affects protein expression.
# sFd-35-ER = test: Complementation of E. coli EW11 growth by sFd-35-ER with 4-HT and other estrogen receptor modulators; type: cell-based, Escherichia coli
# Sequence of sFd-35-ER (P03372 311-547): as the sequence (P03372 311-547 limits assumed) above
# Method: Growth assay. For all growth experiments, E. coli EW11 were freshly transformed with two plasmids, one encoding the e-donor and acceptor pair (FNR and SIR) and the other encoding either a native Fd, a C42A mutant of Ml Fd that is unable to coordinate a 2Fe-2S cluster, or an engineered Fd. Starter cultures were inoculated using single colonies obtained by selecting for colonies containing both plasmids on LB-agar plates. These starter cultures were grown in deep-well 96-well plates for 18 hours at 37° C. in 1 mL of a non-selective modified M9 medium (M9c), which contained sodium phosphate, dibasic (6.8 g/L), sodium phosphate, monobasic (3 g/L), sodium chloride (0.5 g/L), ammonium chloride (1 g/L), calcium chloride (0.1 mM), magnesium sulfate (10 mM), ferric citrate (24 mg/L), p-aminobenzoic acid (2 mg/L), inositol (20 mg/L), adenine (5 mg/L), uracil (20 mg/L), tryptophan (40 mg/L), tyrosine (1.2 mg/L), and the remaining 18 amino acids (80 mg/L each). For auxotroph complementation analysis, starter cultures that had been grown to stationary phase in M9c were diluted ˜1:100 using a 96-well replicator pin into 100 μL of a selective modified M9 medium (M9sa), which is identical to M9c but lacks cysteine and methionine. […] Optical density (OD) measurements were taken every 10 minutes. To select for the Fd and e-donor/acceptor plasmids, all growth steps included chloramphenicol and streptomycin at 34 μg/mL and 100 μg/mL, respectively.
# To test whether this domain-insertion strategy can be used to diversify the chemical regulation of sFd-35, the ligand-binding domain (LBD) of the human estrogen receptor (ER) was inserted after residue 35 to create sFd-35-ER (FIG. 26E).
# as §1
# To evaluate how these different modulators affect sFd-35-ER ET, sFd-35-ER growth complementation was evaluated in the presence of agonists, antagonists, and an endocrine disruptor (FIG. 32D).
# [3] = Midpoint potentials by protein film (square wave) voltammetry; type: physicochemical; details: relative to standard hydrogen electrode, pH 7.0, 23.5° C.
# Method: Midpoint potentials. Electrochemical experiments were carried out anaerobically in a MBraun Labmaster glovebox using a PGSTAT12 potentiostat. A three-electrode configuration was used in a water-jacketed glass cell. A platinum wire was used as the counter electrode and a standard calomel electrode was used as the reference electrode. Reported potentials are relative to the standard hydrogen electrode. Baseline measurements were collected using an edge-plane graphite (EPG) electrode that was modified with a 100 mM neomycin trisulfate solution, rinsed, and placed into a glass cell containing a 23.5° C. mixed buffer solution (5 mM acetate/MES/MOPS/TAPS/CHES/CAPS) pH 7.0, with 100 mM NaCl. A 5 μL aliquot of 720 μM Ml-Fd or 5 mM sFd-35-ER was applied directly to the electrode surface with or without 1 μL of 50 mM 4-HT, the protein was allowed to […] for approximately one minute at room temperature before being placed into the buffer cell solution. Square wave voltammograms were collected at 23.5° C. with a frequency of 10 Hz and electrochemical signals were analyzed using QSoas.
# To investigate if domain insertion affects the reduction potential of Ml-Fd, Ml-Fd and sFd-35-ER were characterized using protein film voltammetry. In the absence of 4-HT, the midpoint potentials of both Ml-Fd and sFd-35-ER (FIG. 27C) were −336 and −320 mV, respectively. […]
# [4] = Fish et al., 2005; cited from earlier work
# E. coli EW11 = E. coli EW11 growth complementation by native, split or engineered Fds; type: cell-based, Escherichia coli; details: after 24 hours; Fd expressed from an aTc-inducible promoter, FNR and SIR constitutive
# Method: Growth assay. […] Optical density (OD) measurements were taken every 10 minutes.
# To rapidly assay ET mediated by engineered Fds, an Escherichia coli sulfide auxotroph (EW11; Barstow et al., 2011), which cannot grow in minimal medium containing sulfate as a sulfur source unless it expresses a synthetic ET chain consisting of a Fd-NADP+ reductase (FNR) electron donor, a Fd electron carrier, and a Fd-dependent sulfite reductase (SIR) electron acceptor, was used (FIG. 25A). Endogenous oxidoreductases were systematically removed from the genome of this strain to insulate Fd-dependent redox pathways from native redox reactions (Barstow et al., 2011). To evaluate Fd ET, Zea mays FNR and SIR were constitutively expressed and a TetR-repressible promoter was used to control the expression of plant-type 2Fe-2S Fds. […]
# With this expression strategy, the inventors can quickly assess which split Fds require two fragments to function in complementation assays by assessing growth in the presence and absence of both inducers because growth depended upon the level of anhydrotetracycline (aTc) (FIG. 25B), and thus, the amount of Fd available to mediate ET. […] For these experiments, they assessed split Fd function in the presence of a constant high concentration of aTc, and varying concentrations of IPTG, which selectively drive the distinct promoters. […]
# Sequence of split Fd fused to estrogen receptor (P03372 311-547 limits assumed): as above
Substance,effect of 4-HT addition alone on rate [1],time after chemical addition at which the higher rate of sulfide production is detectable ([1]; 4-HT added at t=0) [min],sulfide production rate on adding 4-HT alone ([2]; no Fd added),Effect of 4-HT on relative fluorescence of cells expressing sFd-35-ER-RFP (sFd-35-ER-RFP),4-HT concentration at which growth of sFd-35-ER is enhanced significantly above the C42A mutant (sFd-35-ER) [µM],Activation of sFd-35-ER ET (growth complementation) (sFd-35-ER),"Effect of estrogen receptor modulators on complementation of E. coli EW11 by sFd-35-ER, compared to DMSO alone (sFd-35-ER)","EC50 (sFd-35-ER; read-out: k1/2 4-HT, complementation of E. coli EW11 by sFd-35-ER) [nM]",midpoint potential ([3]; absence of 4-HT) [mV],midpoint potential ([3]; presence of 4-HT) [mV],"rate of SF7 fluorescence with increasing concentrations of Ml-Fd ([2]; y=0.7×+12.252, r^2=0.983)",temperature of optimal ET [4] [°C],"k1/2, growth complementation as a function of aTc (E. coli EW11) [ng/mL aTc]"
4-hydroxytamoxifen [4-HT],does not affect rate,≤ 1.5,not enhanced,no significant increase in fluorescence,≥ 6.25,activated,significantly enhance growth,2110,,,,,
"Ml-Fd: Thermostable plant-type 2Fe-2S ferredoxin of Mastigocladus laminosus, UniProt P00248, SEQ ID NO: 11",,,,,,,,,−336,−330,linearly increasing rate,65,1.8

# — patent US11407792B2, “Regulating electron flow using fragmented proteins” (WILLIAM MARSH RICE UNIVERSITY, priority 2017, dated 2022)
